Reference: the supplement of paper PMC10307832

How the values were obtained:
Experiment in all cases: relative viability (nuclei count vs DMSO), 5 days (fraction); higher = more cells survive
[1] = compound: CN(C)CC1=CC(=CC=C1)N=C(C2=CC=CC=C2)C3=C(NC4=C3C=CC(=C4)C(=O)N(C)C)O + CC1(C)CCC(c2ccc(Cl)cc2)=C(CN2CCN(c3ccc(C(=O)NS(=O)(=O)c4ccc(N[C@H](CCN5CCOCC5)CSc5ccccc5)c(S(=O)(=O)C(F)(F)F)c4)cc3)CC2)C1 [Navitoclax] (partner 0.5 µM)
Outline: (§1)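 One day after seeding in 1536-well plates, lung cancer cell lines were dosed by pin tool. Dosing was either single-drug or a fixed anchor-drug dose plus five library-drug doses (not always all listed) in √10 steps. After 5 days, nuclei were stained in one fix-and-stain step and counted on 4× images, and relative viability is the nuclei count of treated wells over that of vehicle wells, given as the median of duplicate plates.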

[2] = compound: CN(C)CC1=CC(=CC=C1)N=C(C2=CC=CC=C2)C3=C(NC4=C3C=CC(=C4)C(=O)N(C)C)O + C[C@@H](Oc1cc(-c2cnn(C3CCNCC3)c2)cnc1N)c1c(Cl)ccc(F)c1Cl [Crizotinib] (partner 1 µM)
Outline: as §1

[3] = compound: CN(C)CC1=CC(=CC=C1)N=C(C2=CC=CC=C2)C3=C(NC4=C3C=CC(=C4)C(=O)N(C)C)O + Cc1cc(Nc2cc(N3CCN(C)CC3)nc(Sc3ccc(NC(=O)C4CC4)cc3)n2)n[nH]1 [Tozasertib] (partner 0.1 µM)
Outline: as §1

[4] = compound: CN(C)CC1=CC(=CC=C1)N=C(C2=CC=CC=C2)C3=C(NC4=C3C=CC(=C4)C(=O)N(C)C)O + O=C(CCCCCCC(=O)Nc1ccccc1)NO [Vorinostat] (partner 1 µM)
Outline: as §1

Cell Line	relative viability ([1]; first compound 0.08 µM)	relative viability ([1]; first compound 0.253 µM)	relative viability ([1]; first compound 0.8 µM)	relative viability ([1]; first compound 2.53 µM)	relative viability ([1]; first compound 8 µM)	relative viability ([2]; first compound 0.08 µM)	relative viability ([2]; first compound 0.253 µM)	relative viability ([2]; first compound 0.8 µM)	relative viability ([2]; first compound 2.53 µM)	relative viability ([2]; first compound 8 µM)	relative viability ([3]; first compound 0.08 µM)	relative viability ([3]; first compound 0.253 µM)	relative viability ([3]; first compound 0.8 µM)	relative viability ([3]; first compound 2.53 µM)	relative viability ([3]; first compound 8 µM)	relative viability ([4]; first compound 0.08 µM)	relative viability ([4]; first compound 0.253 µM)	relative viability ([4]; first compound 0.8 µM)	relative viability ([4]; first compound 2.53 µM)	relative viability ([4]; first compound 8 µM)
CAL-12T	1.11	1.32	1.21	0.963	1.25	0.665	0.592	0.778	0.611	0.612	0.375	0.342	0.311	0.308	0.292	0.989	0.715	0.808	0.93	0.82
NCI-H3122	1.01	1.01	1.06	1.03	1.04	0.281	0.286	0.246	0.318	0.29	0.416	0.359	0.448	0.383	0.438	0.966	0.947	1.17	0.905	0.898
LU99A	0.827	0.581	0.879	0.781	0.882	0.565	0.551	0.61	0.513	0.411	0.312	0.3	0.384	0.22	0.198	0.517	0.515	0.495	0.416	0.469
EPLC-272H	1.35	1.08	0.913	1.14	1.11	0.892	0.899	0.696	0.87	0.8	0.351	0.392	0.303	0.278	0.272	0.426	0.519	0.402	0.49	0.315
NCI-H2009	1.14	1.12	1.17	1.16	1.17	1.11	1.03	1.09	1.01	1	0.767	0.723	0.721	0.551	0.699	0.76	0.724	0.756	0.727	0.708
BEN	0.0778	0.06	0.0663	0.0535	0.0691	0.791	0.739	0.866	0.876	0.641	0.619	0.493	0.5	0.426	0.538	0.577	0.609	0.578	0.603	0.575
NCI-H1755	1.02	1.01	0.998	0.972	0.961	0.792	0.897	0.789	0.758	0.825	0.531	0.479	0.642	0.594	0.615	0.739	0.768	0.717	0.715	0.766
NCI-H2405	1.17	0.759	1.1	0.786	0.742	0.808	0.822	0.827	0.775	0.758	0.748	0.74	0.748	0.662	0.645	1.1	1.01	1.06	0.987	1.01
NCI-H647	1.15	0.962	1.34	0.916	0.976	1.01	0.987	1.08	0.727	0.671	0.262	0.362	0.263	0.356	0.235	0.477	0.561	0.423	0.421	0.649
COR-L 105	0.664	0.795	0.762	0.733	0.562	0.857	0.892	0.882	0.644	0.625	0.372	0.369	0.336	0.346	0.361	0.782	0.81	0.753	1.1	0.66
H3255	0.608	0.457	0.514	0.545	0.552	0.958	0.782	0.756	0.795	0.85	0.528	0.575	0.65	0.71	0.484	0.826	0.987		0.777	0.845
LOU-NH91	0.756	0.687	0.548	0.653	0.638	0.777	0.723	0.689	0.746	0.712	0.68	0.673	0.54	0.642	0.629	0.892	0.97	0.754	0.87	0.872
NCI-H322M	1.18	1.13	1.07	1.06	1.15	0.931	0.899	0.928	0.887	0.853	0.432	0.42	0.407	0.449	0.317	0.8	0.957	0.874	0.743	0.67
HCC-366	0.969	1.03	1.07	1.07	0.901	0.484	0.503	0.513	0.47	0.558	0.17	0.133	0.131	0.153	0.118	0.471	0.369	0.458	0.299	0.473
SK-LU-1	1.05	0.898	0.778	0.651	0.791	1	1.08	0.982	0.825	0.613	0.262	0.327	0.33	0.351	0.295	0.796	0.861	0.735	0.847	0.581
NCI-H1944	1.21	0.937	0.951	0.947	0.908	1.06	1.04	1.06	1.08	1.11	0.25	0.251	0.222	0.262	0.214	0.737	0.589	0.571	0.455	0.469
